Data reported in PubChem BioAssay (NCI).
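The concentration for 50% growth inhibition is given as GI50. TGI: concentration producing complete growth inhibition.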

Columns and labels:
Test in all cases: inhibition of tumour cell growth, NCI panel, 384-well format; in the data active = GI50 below about 0.43 µM; inactive = the rest
[1] = test system: SN12C renal
[2] = test system: IGROV1 ovarian
[3] = test system: BT-549 breast
[4] = test system: K-562 leukemia
[5] = test system: SNB-19 CNS
[6] = test system: NCI-H460 NSCLC
[7] = test system: OVCAR-3 ovarian
[8] = test system: ACHN renal
[9] = test system: EKVX NSCLC
[10] = test system: KM12 colon
[11] = test system: M14 melanoma
[12] = test system: HCT-116 colon
[13] = test system: HCC-2998 colon
[14] = test system: DU-145 prostate
[15] = test system: CAKI-1 renal
[16] = test system: UO-31 renal
[17] = test system: MCF7 breast
[18] = test system: LOX IMVI melanoma
[19] = test system: NCI-H322M lung
[20] = test system: OVCAR-4 ovarian
[21] = test system: HT29 colon
[22] = test system: HOP-92 NSCLC
[23] = test system: OVCAR-8 ovarian
[24] = test system: HL-60(TB) leukemia
[25] = test system: SK-OV-3 ovarian
[26] = test system: NCI-H522 lung
[27] = test system: NCI/ADR-RES ovarian
[28] = test system: HS 578T breast
[29] = test system: MDA-MB-435 melanoma
[30] = test system: SW-620 colon
[31] = test system: HCT-15 colon
[32] = test system: SK-MEL-5 melanoma
[33] = test system: A549 NSCLC
[34] = test system: MOLT-4 leukemia
[35] = test system: MDA-MB-468 breast
[36] = test system: MALME-3M melanoma
[37] = test system: 786-0 renal
[38] = test system: NCI-H23 lung
[39] = test system: PC-3 prostate
[40] = test system: RPMI-8226 leukemia
[41] = test system: SNB-75 CNS
[42] = test system: NCI-H226 lung
[43] = test system: SR leukemia
[44] = test system: RXF 393 renal
[45] = test system: MDA-MB-231 breast
[46] = test system: SF-268 CNS
[47] = test system: OVCAR-5 ovarian
[48] = test system: HOP-62 NSCLC
[49] = test system: U251 glioblastoma
[50] = test system: COLO 205 colon
[51] = test system: CCRF-CEM leukemia
[52] = test system: SF-539 CNS
[53] = test system: TK-10 renal
[54] = test system: A498 renal
[55] = test system: SF-295 CNS

O=C(Nc1ccncc1)C(=O)c1cn(Cc2ccc(Cl)cc2)c2ccccc12
0.0165 µM: TGI [51]
0.0674 µM: TGI [38]
0.787 µM: TGI [42]
0.377 µM: TGI [13]
0.0208 µM: TGI [35]
23.4 µM: TGI [36]
0.353 µM: TGI [50]
72.2 µM: TGI [53]
2.01 µM: TGI [37]
24.1 µM: TGI [48]
1.95 µM: TGI [49]
0.0116 µM: TGI [32]
34.3 µM: TGI [22]
> 100 µM: TGI [1] | TGI [2] | TGI [3] | TGI [5] | TGI [8] | TGI [9] | TGI [10] | TGI [12] | TGI [14] | TGI [15] | TGI [16] | TGI [17] | TGI [18] | TGI [19] | TGI [20] | TGI [21] | TGI [25] | TGI [30] | TGI [31] | TGI [33] | TGI [39] | TGI [45] | TGI [46] | TGI [47] | TGI [54]
active: GI50 [1] 0.0173 µM | GI50 [2] < 0.01 µM | GI50 [3] < 0.01 µM | GI50 [4] < 0.01 µM | GI50 [5] 0.0138 µM | GI50 [6] < 0.01 µM | GI50 [7] < 0.01 µM | GI50 [8] < 0.01 µM | GI50 [9] < 0.01 µM | GI50 [10] < 0.01 µM | GI50 [11] < 0.01 µM | GI50 [12] < 0.01 µM | GI50 [13] < 0.01 µM | GI50 [14] 0.0208 µM | GI50 [15] < 0.01 µM | GI50 [16] < 0.01 µM | GI50 [17] < 0.01 µM | GI50 [18] < 0.01 µM | GI50 [19] 0.0448 µM | GI50 [20] 0.023 µM | GI50 [21] < 0.01 µM | GI50 [22] 0.0104 µM | GI50 [23] < 0.01 µM | GI50 [24] < 0.01 µM | GI50 [25] 0.025 µM | GI50 [26] < 0.01 µM | GI50 [27] < 0.01 µM | GI50 [28] < 0.01 µM | GI50 [29] < 0.01 µM | GI50 [30] < 0.01 µM | GI50 [31] < 0.01 µM | GI50 [32] < 0.01 µM | GI50 [34] < 0.01 µM | GI50 [35] < 0.01 µM | GI50 [36] < 0.01 µM | GI50 [37] < 0.01 µM | GI50 [38] < 0.01 µM | GI50 [39] < 0.01 µM | GI50 [40] < 0.01 µM | GI50 [41] < 0.01 µM | GI50 [42] < 0.01 µM | GI50 [43] < 0.01 µM | GI50 [44] < 0.01 µM | GI50 [45] 0.0468 µM | GI50 [46] < 0.01 µM | GI50 [48] < 0.01 µM | GI50 [49] < 0.01 µM | GI50 [50] 0.126 µM | GI50 [51] < 0.01 µM | GI50 [52] < 0.01 µM | GI50 [53] < 0.01 µM | GI50 [54] 0.0305 µM | GI50 [55] < 0.01 µM
0.0368 µM: TGI [11]
0.0119 µM: TGI [4]
< 0.01 µM: TGI [7] | TGI [24] | TGI [26] | TGI [27] | TGI [28] | TGI [29] | TGI [34] | TGI [40] | TGI [43] | TGI [44] | TGI [55]
14.1 µM: TGI [23]
0.0527 µM: TGI [6]
0.0247 µM: TGI [52]
inactive: GI50 [33] 1.09 µM | GI50 [47] 0.894 µM
3.23 µM: TGI [41]
